Values quoted from earlier work in publication PMC11665553, “12-Lipoxygenase inhibition delays onset of autoimmune diabetes in human gene replacement mice” (JCI Insight, 2024).

What was measured:
[1] = parameters: method as in PMID 28842399; conditions: cited from earlier work
NOD mice = test system: NOD mice; parameters: method as in PMID 28842399; conditions: cited from earlier work

Row | Compound | Off-target cytotoxicity [1] | Effect in NOD mice (NOD mice)
1 | CC(=O)NC(c1cccs1)c1cc(Br)c2cccnc2c1O (centres unmarked) [ML127] | evidence of off-target cytotoxicity | 
2 | CNc1oc(-c2cccc3ccccc23)nc1C#N [ML351] |  | reductions in insulitis and improvements in glucose homeostasis
